Experimental data taken from US8216800B2, “Substrates for detecting peptidase activity and methods using the substrates” (Biomerieux, priority 2007, dated 2012).

Key:
Assay in all cases: Peptidase activity detection on Columbia agar containing substrate
Assay type in all cases: cell-based
[1] = tested on: Bacillus subtilis NCTC 9372; set-up: key: − = no fluorescence detected; e = trace of fluorescence; +/− = weak fluorescence; + = medium fluorescence; ++ = strong fluorescence; NG = No Growth; conditions: substrate 100 mg/l, 24 hours at 37° C., UV 360-365 nm
Description: (§1) 40 mg of each substrate are dissolved in 4 ml of dimethylformamide (DMF). This solution is completely taken up in 400 ml of Columbia agar autoclaved beforehand and kept molten at 50° C. The final concentration for each substrate is therefore 100 mg/l. Each of the media is distributed into 90 mm Petri dishes in a proportion of 20 ml per dish.
(§2) 18 microorganism strains derived from collections and belonging to various species of bacteria and of yeasts are inoculated onto these media by semi-quantitative isolation of 10 μl of a suspension at 0.5 McFarland diluted to 1/20. The media are incubated for 24 hours at 37° C., and then the colonies formed are examined visually under UV illumination at 360-365 nm.

[2] = tested on: Candida albicans ATCC 90028; set-up: key: − = no fluorescence detected; e = trace of fluorescence; +/− = weak fluorescence; + = medium fluorescence; ++ = strong fluorescence; NG = No Growth; conditions: substrate 100 mg/l, 24 hours at 37° C., UV 360-365 nm
Description: as §1, §2

[3] = tested on: Candida glabrata NCPF3943; set-up: key: − = no fluorescence detected; e = trace of fluorescence; +/− = weak fluorescence; + = medium fluorescence; ++ = strong fluorescence; NG = No Growth; conditions: substrate 100 mg/l, 24 hours at 37° C., UV 360-365 nm
Description: as §1, §2

[4] = tested on: Enterobacter cloacae NCTC 11936; set-up: key: − = no fluorescence detected; e = trace of fluorescence; +/− = weak fluorescence; + = medium fluorescence; ++ = strong fluorescence; NG = No Growth; conditions: substrate 100 mg/l, 24 hours at 37° C., UV 360-365 nm
Description: as §1, §2

[5] = tested on: Enterococcus faecalis NCTC 775; set-up: key: − = no fluorescence detected; e = trace of fluorescence; +/− = weak fluorescence; + = medium fluorescence; ++ = strong fluorescence; NG = No Growth; conditions: substrate 100 mg/l, 24 hours at 37° C., UV 360-365 nm
Description: as §1, §2

[6] = tested on: Enterococcus faecium NCTC 11047; set-up: key: − = no fluorescence detected; e = trace of fluorescence; +/− = weak fluorescence; + = medium fluorescence; ++ = strong fluorescence; NG = No Growth; conditions: Enterococcus faecium NCTC 11047 (Table 2); substrate 100 mg/l, 24 hours at 37° C., UV 360-365 nm
Description: as §1, §2

[7] = tested on: Escherichia coli NCTC 10418; set-up: key: − = no fluorescence detected; e = trace of fluorescence; +/− = weak fluorescence; + = medium fluorescence; ++ = strong fluorescence; NG = No Growth; conditions: substrate 100 mg/l, 24 hours at 37° C., UV 360-365 nm
Description: as §1, §2

[8] = tested on: Listeria monocytogenes NCTC 11994; set-up: key: − = no fluorescence detected; e = trace of fluorescence; +/− = weak fluorescence; + = medium fluorescence; ++ = strong fluorescence; NG = No Growth; conditions: substrate 100 mg/l, 24 hours at 37° C., UV 360-365 nm
Description: as §1, §2

[9] = tested on: Providencia rettgeri NCTC 7475; set-up: key: − = no fluorescence detected; e = trace of fluorescence; +/− = weak fluorescence; + = medium fluorescence; ++ = strong fluorescence; NG = No Growth; conditions: substrate 100 mg/l, 24 hours at 37° C., UV 360-365 nm
Description: as §1, §2

[10] = tested on: Salmonella Typhimurium NCTC 74; set-up: key: − = no fluorescence detected; e = trace of fluorescence; +/− = weak fluorescence; + = medium fluorescence; ++ = strong fluorescence; NG = No Growth; conditions: substrate 100 mg/l, 24 hours at 37° C., UV 360-365 nm
Description: as §1, §2

[11] = tested on: Serratia marcescens NCTC 10211; set-up: key: − = no fluorescence detected; e = trace of fluorescence; +/− = weak fluorescence; + = medium fluorescence; ++ = strong fluorescence; NG = No Growth; conditions: substrate 100 mg/l, 24 hours at 37° C., UV 360-365 nm
Description: as §1, §2

[12] = tested on: Staphylococcus aureus NCTC 11939; set-up: key: − = no fluorescence detected; e = trace of fluorescence; +/− = weak fluorescence; + = medium fluorescence; ++ = strong fluorescence; NG = No Growth; conditions: Staphylococcus aureus (MRSA) NCTC 11939; substrate 100 mg/l, 24 hours at 37° C., UV 360-365 nm
Description: as §1, §2

[13] = tested on: Staphylococcus aureus NCTC 6571; set-up: key: − = no fluorescence detected; e = trace of fluorescence; +/− = weak fluorescence; + = medium fluorescence; ++ = strong fluorescence; NG = No Growth; conditions: substrate 100 mg/l, 24 hours at 37° C., UV 360-365 nm
Description: as §1, §2

[14] = tested on: Staphylococcus epidermidis NCTC 11047; set-up: key: − = no fluorescence detected; e = trace of fluorescence; +/− = weak fluorescence; + = medium fluorescence; ++ = strong fluorescence; NG = No Growth; conditions: substrate 100 mg/l, 24 hours at 37° C., UV 360-365 nm
Description: as §1, §2

[15] = tested on: Streptococcus pyogenes NCTC 8306; set-up: key: − = no fluorescence detected; e = trace of fluorescence; +/− = weak fluorescence; + = medium fluorescence; ++ = strong fluorescence; NG = No Growth; conditions: substrate 100 mg/l, 24 hours at 37° C., UV 360-365 nm
Description: as §1, §2

[16] = tested on: Yersinia enterocolitica NCTC 11176; set-up: key: − = no fluorescence detected; e = trace of fluorescence; +/− = weak fluorescence; + = medium fluorescence; ++ = strong fluorescence; NG = No Growth; conditions: substrate 100 mg/l, 24 hours at 37° C., UV 360-365 nm
Description: as §1, §2

[17] = tested on: Burkholderia cepacia 1222; set-up: key to fluorescence intensity: − = no fluorescence detected; e = trace of fluorescence; +/− = weak fluorescence; + = medium fluorescence; ++ = strong fluorescence; NG = No Growth; conditions: for fluorescence produced: B. cepacia strain; for fluorescence intensity: Burkholderia cepacia 1222, substrate 100 mg/l, 24 hours at 37° C., UV 360-365 nm
Description: as §1, §2

[18] = tested on: Pseudomonas aeruginosa NCTC 10662; set-up: key to fluorescence intensity: − = no fluorescence detected; e = trace of fluorescence; +/− = weak fluorescence; + = medium fluorescence; ++ = strong fluorescence; NG = No Growth; conditions: for fluorescence intensity: Pseudomonas aeruginosa NCTC 10662, substrate 100 mg/l, 24 hours at 37° C., UV 360-365 nm; for fluorescence produced: Pseudomonas aeruginosa strain
Description: as §1, §2

[19] = tested on: Staphylococcus aureus strains; conditions: the two Staphylococcus aureus strains
Description: as §1, §2

[20] = tested on: Citrobacter freundii 46262 (wild); set-up: key: − = no fluorescence detected; e = trace of fluorescence; +/− = weak fluorescence; + = medium fluorescence; ++ = strong fluorescence; NG = No Growth; conditions: substrate 100 mg/l, 24 hours at 37° C., UV 360-365 nm
Description: as §1, §2

[21] = tested on: Enterococcus faecium NCTC 7171; set-up: key: − = no fluorescence detected; e = trace of fluorescence; +/− = weak fluorescence; + = medium fluorescence; ++ = strong fluorescence; NG = No Growth; conditions: Enterococcus faecium NCTC 7171 (Table 3); substrate 100 mg/l, 24 hours at 37° C., UV 360-365 nm
Description: as §1, §2

[22] = tested on: Morganella morganii 462403 (wild); set-up: key: − = no fluorescence detected; e = trace of fluorescence; +/− = weak fluorescence; + = medium fluorescence; ++ = strong fluorescence; NG = No Growth; conditions: substrate 100 mg/l, 24 hours at 37° C., UV 360-365 nm
Description: as §1, §2

NCCC(=O)Nc1ccccc1-c1nc2ccccc2o1 [Substrate 2]
green fluorescence: fluorescence produced [17]
NG: fluorescence intensity [1] | fluorescence intensity [15]
+: fluorescence intensity [4] | fluorescence intensity [7] | fluorescence intensity [11] | fluorescence intensity [17] | fluorescence intensity [18]
ε: fluorescence intensity [8]
+/−: fluorescence intensity [5] | fluorescence intensity [6] | fluorescence intensity [9] | fluorescence intensity [16]
−: fluorescence intensity [2] | fluorescence intensity [3] | fluorescence intensity [10] | fluorescence intensity [12] | fluorescence intensity [13] | fluorescence intensity [14]

NCC(=O)Nc1ccccc1-c1nc2ccccc2o1 [Substrate 3]
medium blue fluorescence: fluorescence produced [17]
+: fluorescence intensity [12] | fluorescence intensity [13] | fluorescence intensity [17]
+/−: fluorescence intensity [1] | fluorescence intensity [8] | fluorescence intensity [16] | fluorescence intensity [18]
++: fluorescence intensity [4] | fluorescence intensity [7] | fluorescence intensity [9] | fluorescence intensity [11]
−: fluorescence intensity [5] | fluorescence intensity [10]
NG: fluorescence intensity [2] | fluorescence intensity [3] | fluorescence intensity [6] | fluorescence intensity [14] | fluorescence intensity [15]

C[C@H](N)C(=O)Nc1ccccc1-c1nc2cc(Cl)ccc2o1 [Substrate 4]
NG^2: fluorescence intensity [7]
weak violet fluorescence: fluorescence produced [18]
+/−: fluorescence intensity [5] | fluorescence intensity [18]
++: fluorescence intensity [11]
+: fluorescence intensity [4] | fluorescence intensity [9] | fluorescence intensity [16]
no fluorescence was detected: fluorescence produced [19]
NG: fluorescence intensity [1] | fluorescence intensity [10]
−: fluorescence intensity [2] | fluorescence intensity [3] | fluorescence intensity [6] | fluorescence intensity [8] | fluorescence intensity [12] | fluorescence intensity [13] | fluorescence intensity [14] | fluorescence intensity [15] | fluorescence intensity [17]

COc1cc(NC(=O)CCN)c(-c2nc3ccccc3o2)cc1OC [Substrate 11]
+: fluorescence intensity [4] | fluorescence intensity [7] | fluorescence intensity [9] | fluorescence intensity [10] | fluorescence intensity [11] | fluorescence intensity [13] | fluorescence intensity [17]
−: fluorescence intensity [1] | fluorescence intensity [2] | fluorescence intensity [3] | fluorescence intensity [12] | fluorescence intensity [14] | fluorescence intensity [15]
+/−: fluorescence intensity [5] | fluorescence intensity [6] | fluorescence intensity [8] | fluorescence intensity [16] | fluorescence intensity [18]

C[C@H](N)C(=O)Nc1ccccc1-c1nc2ccccc2n1CCc1ccccc1 [Substrate 14]
−: fluorescence intensity [1] | fluorescence intensity [2] | fluorescence intensity [3] | fluorescence intensity [20] | fluorescence intensity [5] | fluorescence intensity [21] | fluorescence intensity [7] | fluorescence intensity [8] | fluorescence intensity [22] | fluorescence intensity [9] | fluorescence intensity [10] | fluorescence intensity [12] | fluorescence intensity [13] | fluorescence intensity [14] | fluorescence intensity [15] | fluorescence intensity [16] | fluorescence intensity [17] | fluorescence intensity [18]
+/−: fluorescence intensity [4] | fluorescence intensity [11]

NCCC(=O)Nc1ccccc1-c1nc2ccccc2s1 [Substrate 18]
++: fluorescence intensity [7] | fluorescence intensity [11] | fluorescence intensity [18]
NG: fluorescence intensity [1] | fluorescence intensity [2] | fluorescence intensity [3] | fluorescence intensity [4] | fluorescence intensity [5] | fluorescence intensity [6] | fluorescence intensity [8] | fluorescence intensity [9] | fluorescence intensity [10] | fluorescence intensity [12] | fluorescence intensity [13] | fluorescence intensity [14] | fluorescence intensity [15] | fluorescence intensity [16] | fluorescence intensity [17]

C[C@H](N)C(=O)Nc1ccc(Cl)cc1-c1nc2ccccc2s1 [Substrate 19]
−: fluorescence intensity [1] | fluorescence intensity [5] | fluorescence intensity [6] | fluorescence intensity [8] | fluorescence intensity [11] | fluorescence intensity [12] | fluorescence intensity [13] | fluorescence intensity [17] | fluorescence intensity [18]
NG: fluorescence intensity [2] | fluorescence intensity [3] | fluorescence intensity [14] | fluorescence intensity [15]
+/−: fluorescence intensity [10]
+: fluorescence intensity [4] | fluorescence intensity [7] | fluorescence intensity [9]
negative: fluorescence produced [18]
